Each structure is given as a SMILES string. “And” between values parts separate entries of the source, which are not always exact repeats. Equal entries are not always repeated.

Series [1] in a line: Brain and plasma exposure following IV and PO administration to mice. The note with it: for Brain Cmax @ 10 mpk / Projected free brain @ 10 mpk: 10 mg/kg PO; for brain Cmax exposure, fold higher than comparator 1 / projected free brain concentration, fold higher than comparator 1: comparator 1 data scaled for comparison. The series is classed as in vivo. Here is the method: Compounds were dosed in mice at either 10 mg/kg or 30 mg/kg PO, and were dosed at 1 mg/kg IV. Three animals for collection at each time point for plasma via bleeding at 0.25, 0.5, 1, 4, 12 and 24 h. Terminal bleeding for plasma and sampling for brain at 0.25, 0.5, 1, 4, 12 and 24 h (also three animals per brain exposure time point group). Total of six time points for plasma and six time points for brain.
Plasma: The animal was restrained manually at the designated time points, approximately 150 μL blood/time point was collected into K2EDTA tube via retro orbital puncture or cardiac puncture under anesthesia with Isoflurane. The blood sample was centrifuged (2000 g, 4° C., 5 min) to generate plasma within 30 min after bleeding.
Brain: At the designated time points, a mid-line incision was made in the animals scalp and the skin was retracted. Using small bone cutters and rongeurs, removed the skull overlying the brain. Removed the brain using a spatula and rinse with cold saline. Placed the brain in screw-top tubes, and then stored the tubes under −70° C. until analysis.

The subject of series [2] is human erythroid progenitors (CFU-E, BFU-E). The experiment in a line: Erythroid CFU assay. The settings on record: for activity at 10 µM: Bone marrow cell, 336 h, 14 days culture, human bone marrow cells, read-out: Erythroid % control @ 10 uM dose. Format: cell-based. Here is the method:
(§1) Compounds were tested to evaluate the potential effects on human erythroid and myeloid progenitors using colony forming cell assays. Clonogenic progenitors of human erythroid (CFU-E, BFU-E), granulocyte-monocyte (CFU-GM) and multipotential (CFU-GEMM) lineages were assessed in a semi-solid methylcellulose-based media formulation containing rhIL-3 (10 ng/mL), rhGM-SCF (10 ng/mL), rhSCF (50 ng/mL) and Epo (3 U/mL).
(§2) Normal human bone marrow light density cells derived from normal bone marrow (NorCal Biologics, California), were stored in the gaseous phase of liquid nitrogen (−152° C.) until required for the assay. On the day of the experiment, the cells were thawed rapidly, the contents of each vial was diluted in 10 mL of Iscove's modified Dulbecco's medium containing 10% fetal bovine serum (IMDM+10% FBS) and washed by centrifugation (approximately 1200 r.p.m. for 10 minutes, room temperature). The supernatant was discarded and the cell pellets resuspended in a known volume of IMDM+10% FBS. A cell count (3% glacial acetic acid) and viability assessment (trypan blue exclusion test) was performed for the bone marrow sample.
(§3) On the day of the experiment, the compounds were dissolved in DMSO to a stock concentration of 10 mM. Serial dilutions were prepared from the stock concentration to achieve concentrations of 2 and 0.4 mM. When added to the methylcellulose-based media at 1:1000 (v/v), the final test concentrations of 10, 2 and 0.4 μM were achieved. Additionally, 5-FU was evaluated at 1.0, 0.1 and 0.01 μg/mL.
(§4) Clonogenic progenitors of the human erythroid (CFU-E and BFU-E) and myeloid (CFU-GM) lineages were set up in the methylcellulose-based media formulations described above. All compounds were added to the medium to give the final desired concentrations (10, 2 and 0.4 μM). 5-Fluorouracil (Sigma Aldrich) was used as a positive control for progenitor proliferation (inhibition of colony growth) and was introduced to the human bone marrow cultures at 1.0, 0.1, and 0.01 μg/mL. Solvent control cultures (containing no compound but 0.1% DMSO) as well as standard controls (containing no compound and no DMSO) were also initiated.
(§5) Human myeloid and erythroid progenitor assays were initiated at 2.0×10^4 cells per culture. Following 14 days in culture, myeloid and erythroid colonies were assessed microscopically and scored by trained personnel. The colonies were divided into the following categories based on size and morphology: CFU-E, BFU-E, CFU-GM and CFU-GEMM.
(§6) The mean±one standard deviation of three replicate cultures was calculated for progenitors of each category (CFU-E, BFU-E, etc.). Two-tailed t-tests were performed to assess if there was a difference in the number of colonies generated between solvent control and treated cultures. Due to the potential subjectivity of colony enumeration, a p value of less than 0.01 is deemed significant. To calculate the concentration of 50% inhibition of colony growth (IC50) for each compound, a dose response curve was generated plotting the log of the compound concentration versus the percentage of control colony growth using XLfit software (IDBS). The concentration of 50% inhibition of colony growth (IC50) was calculated based on the sigmoid curve fit using Dose-Response, One-Site Model formula: y=A+[(B−A)/(1+((C/x)^D))], where A=the initial value (baseline response), B=maximum response, C=center (drug concentration that provokes a response halfway between A and B) and D=slope of the curve at midpoint. Further, plots and additional dose response curves were generated using GraphPad Prism 7.0.
(§7) Erythroid (CFU-E and BFU-E), myeloid (CFU-GM) and multi-potential (CFU-GEMM) colony enumeration was performed by trained personnel. The distribution of colony types as well as general colony and cellular morphology was analyzed. For statistical analysis colony numbers in compound treated cultures were compared to the solvent control cultures. […]

In series [3] the test system is human myeloid progenitors (CFU-GM). The experiment in a line: Myeloid CFU assay. The settings on record: 336 h, 14 days culture, human bone marrow cells, read-out: Myeloid % control @ 10 uM dose. The series is classed as cell-based. Here is the method:
as §1, §2, §3, §4, §5, §6, §7

Take `Nc1ccc(-c2ccc(F)cc2)nc1NC(=O)N1Cc2cncnc2C1` [Comparator 1, reference compound]: the “Brain Cmax @ 10 mpk (*scaled for comparison)” value in series [1] (dosed 30 mg/kg PO, scaled to 10 mg/kg PO) is listed as 158* ng/g. The figures for the activity at 10 µM in series [2] and in series [3] were 47.1% and 83.9%, respectively.

Consider `Cn1cc2c(n1)CN(C(=O)Nc1nc(-c3ccc(F)cc3)ccc1N)C2` [Comparator 2, reference compound], for which the activity at 10 µM in series [2] was 15.7%; in series [3] it was 30.4%.

In the case of `Cc1cc2c(cn1)CN(C(=O)Nc1nc(-c3ccc(F)cc3)ccc1N)C2` [Comparator 3, reference compound], the values for the activity at 10 µM in series [2] and in series [3] were 25.7% and 66.1%, respectively.

On to `COCc1cc2c(cn1)CN(C(=O)Nc1nc(-c3ccc(F)cc3)ccc1N)C2` [Comparator 5, reference compound], for which the values for the activity at 10 µM in series [2] and in series [3] were 22.9% and 58.9%, respectively.

On to `COCCn1cc2c(n1)CN(C(=O)Nc1nc(-c3ccc(F)cc3)ccc1N)C2` [Comparator 6, reference compound], for which the activity at 10 µM in series [2] stood at 28%; in series [3], 39%.

For `Nc1ccc(-c2cccs2)nc1NC(=O)N1Cc2cncnc2C1` [Comparator 6, reference compound], in series [1], the “Brain Cmax @ 10 mpk” value is 100 ng/g and the “Projected free brain @ 10 mpk” value came to 0.103 µM.

For `Nc1ccc(-c2ccc(F)cc2)nc1NC(=O)N1Cc2cn(C3COC3)nc2C1` [Compound 1], the “Brain Cmax @ 10 mpk” value in series [1] was found to be 636 ng/g. Further, the results for the activity at 10 µM in series [2] and in series [3] were 37% and 54%, respectively.

`Cc1ncc2c(n1)CN(C(=O)Nc1nc(-c3ccc(F)s3)ccc1N)C2` [Compound 2]: the “Brain Cmax @ 10 mpk” value in series [1] stood at 760 ng/g. In addition, the activity at 10 µM was determined as 40% in series [2] and 87% in series [3].

`CCc1ncc2c(n1)CN(C(=O)Nc1nc(-c3cccs3)ccc1N)C2` [Compound 3]: the “Brain Cmax @ 10 mpk” value in series [1] was 526 ng/g. The activity at 10 µM in series [2] came out at 46.6%; in series [3] it was 89.4%.

`Cc1ncc(-c2ccc(N)c(NC(=O)N3Cc4cn(C)nc4C3)n2)s1` [Compound 4]: the “Brain Cmax @ 10 mpk” value in series [1] is 324 ng/g. Besides, the activity at 10 µM in series [2] stood at 53%; in series [3] it was 96%.

Take `O=c1[nH]cc(F)c(=O)[nH]1` [Compound 5-FU, 5-Fluorouracil, reference compound]: in series [2] (1.0, 0.1 and 0.01 μg/mL, erythroid and myeloid assays), the “inhibitory effects on colony growth (positive control for toxicity)” value was “exactly as expected”.

Turning to `Cc1ncc(-c2ccc(N)c(NC(=O)N3Cc4cn(CC(F)F)nc4C3)n2)s1` [Compound 5], the “Brain Cmax @ 10 mpk” value in series [1] was found to be 277 ng/g.

Take `Cc1nc2c(n1C)CN(C(=O)Nc1nc(-c3ccc(F)cc3)ccc1N)C2` [Compound 7]: the “Brain Cmax @ 10 mpk” value in series [1] is recorded as 102 ng/g.

Consider `CCc1cc2c(cn1)CN(C(=O)Nc1nc(-c3cccnc3)ccc1N)C2` [Compound 8], for which, in series [1], the “Brain Cmax @ 10 mpk” value amounted to 279 ng/g. For the same molecule, the activity at 10 µM in series [2] came to 98%; in series [3], 102%.

Regarding `COCCn1cc2c(n1)CN(C(=O)Nc1nc(-c3ccc(F)cc3F)ccc1N)C2` [Compound 9], in series [1], the “Brain Cmax @ 10 mpk” value is 1533 ng/g and 1383 ng/g. Moreover, the activity at 10 µM in series [2] stood at 40.4%; in series [3], 62.8%.

`Cn1cc2c(n1)CN(C(=O)Nc1nc(-c3cccnc3)ccc1N)C2` [Compound 11]: in series [1], the “Brain Cmax @ 10 mpk” value worked out at 369 ng/g and the “Projected free brain @ 10 mpk” value was found to be 0.664 µM. Moreover, the activity at 10 µM in series [2] came to 94%. Further, the activity at 10 µM in series [3] stood at 103%.

Consider `Cc1cc2c(cn1)CN(C(=O)Nc1nc(-c3cccnc3)ccc1N)C2` [Compound 12], for which, in series [1], the “Brain Cmax @ 10 mpk” value is 237 ng/g. The activity at 10 µM in series [2] is 93%; in series [3], 104%.

Consider `Cc1ncc2c(n1)CN(C(=O)Nc1nc(-c3ccc(F)cc3)ccc1N)C2` [Compound 14], for which, in series [1], the “Brain Cmax @ 10 mpk” value is recorded as 633 ng/g; the “brain Cmax exposure, fold higher than comparator 1” value worked out at 4 fold; the “projected free brain concentration, fold higher than comparator 1” value stood at 4 fold. Further, the activity at 10 µM in series [2] worked out at 53%. Besides, the activity at 10 µM in series [3] was found to be 112%.

As to `CCc1ncc2c(n1)CN(C(=O)Nc1nc(-c3ccc(F)cc3)ccc1N)C2` [Compound 17], in series [1], the “Brain Cmax @ 10 mpk” value was 1241 ng/g; the “brain Cmax exposure, fold higher than comparator 1” value was roughly 7 fold; the “projected free brain concentration, fold higher than comparator 1” value is recorded as 5 fold. In series [2], the activity at 10 µM is 59.6%. In addition, in series [3], the activity at 10 µM was 79.1%.
